Read-outs that look alike come from different tables or passages of the source.
Tested on: C. elegans
Assay: microbe, parasite or virus in culture
Details: Caenorhabditis elegans
[1] = 0 h, read-out: Percentage of motility inhibition 0 h, Table S2, C. elegans SS assay, 110 μM, 0 h, averages of 4 data points
[2] = 24 h, read-out: Percentage of motility inhibition 24 h, Table S2, C. elegans SS assay, 110 μM, 24 h, averages of 4 data points
[3] = 0 h, read-out: Percentage of motility inhibition 0 h
[4] = 24 h, read-out: Percentage of motility inhibition 24 h

| SMILES | inhibition at 110 µM [1] [%] | inhibition at 110 µM [2] [%] | inhibition at 110 µM [3] [%] | inhibition at 110 µM [4] [%] |
| --- | --- | --- | --- | --- |
| Cc1cc(C)c(Nc2ccnc(Nc3ccc(C#N)cc3)n2)c(C)c1 [Dapivirine] | 44 | 4 | – | – |
| Nc1ccc(S(=O)(=O)c2ccc(N)cc2)cc1 [Dapsone] | 42 | 24 | – | – |
| CCCCCCCCCC(=O)N[C@@H](Cc1c[nH]c2ccccc12)C(=O)N[C@H](CC(N)=O)C(=O)N[C@@H](CC(=O)O)C(=O)N[C@@H]1C(=O)NCC(=O)N[C@@H](CCCN)C(=O)N[C@@H](CC(=O)O)C(=O)N[C@H](C)C(=O)N[C@@H](CC(=O)O)C(=O)NCC(=O)N[C@H](CO)C(=O)N[C@@H]([C@H](C)CC(=O)O)C(=O)N[C@@H](CC(=O)c2ccccc2N)C(=O)O[C@@H]1C [Daptomycin] | 3 | 8 | – | – |
| CC(C)CN(C[C@@H](O)[C@H](Cc1ccccc1)NC(=O)O[C@H]1CO[C@H]2OCC[C@H]21)S(=O)(=O)c1ccc(N)cc1 [Darunavir] | – | – | 39 | 26 |
| CC1(C)[C@H](O)CC[C@@]2(C)[C@@H]3CC[C@](C)([C@@H](O)CO[C@@H]4O[C@H](CO)[C@@H](O)[C@H](O)[C@H]4O)C=C3CC[C@H]12 [Darutoside] | 2 | 9 | – | – |
| COc1cc2c(cc1OC)[C@@H](Cc1ccc(Oc3cc(C[C@@H]4c5cc(OC)c(OC)cc5CCN4C)ccc3O)cc1)N(C)CC2 [Dauricine] | – | – | 2 | 9 |
| CCCCCCCCCCOc1cc2c(O)c(C(=O)OCC)cnc2cc1OCC [Decoquinate] | 13 | 1 | – | – |
| COc1cc2c(cc1OC)[C@@H]1C(=O)c3ccc4c(c3O[C@@H]1CO2)C=CC(C)(C)O4 [Deguelin] | 0 | 0 | – | – |
| CC(C)c1ccc2c(c1)CC[C@H]1[C@](C)(C(=O)O)CCC[C@]21C [Dehydroabietic acid] | 4 | 17 | – | – |
| CC(=O)C1C(=O)C=C(C)OC1=O (stereo not shown) [Dehydroacetic acid] | 45 | 17 | – | – |
| COc1cc2c(cc1OC)-c1c(C)c3ccc(OC)c(OC)c3c[n+]1CC2 [Dehydrocorydaline] | 4 | 0 | – | – |
| C=C1CC[C@H]2C(=C)CC[C@H]3C(=C)C(=O)O[C@@H]3[C@@H]12 [Dehydrocostus Lactone] | 0 | 24 | – | – |
| COc1cc2c3c(cc4ccccc4c3c1OC)N(C)CC2 [Dehydronuciferine] | 6 | 6 | – | – |
| C=C(CC[C@@H](C(=O)O)[C@H]1[C@H](O)C[C@@]2(C)C3=CC[C@H]4C(C)(C)[C@@H](O)CC[C@]4(C)C3=CC[C@]12C)C(C)C [Dehydrotumulosic acid] | 11 | 21 | – | – |
| C[C@]1(COc2ccc(N3CCC(Oc4ccc(OC(F)(F)F)cc4)CC3)cc2)Cn2cc([N+](=O)[O-])nc2O1 [Delamanid] | 42 | 21 | – | – |
| CCN1C[C@]2(COC)CC[C@H](O)[C@]34C1[C@@](O)([C@@H](OC)[C@H]23)[C@@]1(O)C[C@H](OC)[C@H]2C[C@@H]4[C@@H]1[C@H]2OC [Delsoline] | 5 | 0 | – | – |
| CCN1C[C@]2(C)CC[C@H](OC)[C@@]34C1[C@]1(OCO[C@@]15C[C@H](OC)[C@H]1C[C@]3(O)[C@@H]5[C@H]1OC)[C@@H](OC(C)=O)[C@H]24 [Deltaline] | 0 | 0 | – | – |
| C[C@H](CCC(=O)O)[C@H]1CC[C@H]2[C@@H]3CC[C@@H]4C[C@H](O)CC[C@]4(C)[C@H]3C[C@H](O)[C@]12C [Deoxycholic acid] | 29 | 12 | – | – |
| C[C@H]1O[C@@H](O[C@H]2CC[C@@]3(C)[C@H](CC[C@@H]4[C@@H]3C[C@@H](O)[C@]3(C)[C@@H](C5=CC(=O)OC5)CC[C@]43O)C2)C[C@H](O)[C@@H]1O[C@H]1C[C@H](O)[C@H](O[C@H]2C[C@H](O)[C@H](O[C@@H]3O[C@H](CO)[C@@H](O)[C@H](O)[C@H]3O)[C@@H](C)O2)[C@@H](C)O1 [Deslanoside] | 5 | 5 | – | – |
| CC(=O)Oc1cccc2c1C(=O)c1c(OC(C)=O)cc(C(=O)O)cc1C2=O [Diacerein] | 0 | 8 | – | – |
| COc1ccc(Cc2cnc(N)nc2N)cc1OC [Diaveridine] | 17 | 32 | – | – |
| Oc1ccc(Cl)cc1Cc1cc(Cl)ccc1O [Dichlorophen] | 15 | 0 | – | – |
| N#CC(c1ccc(Cl)cc1)c1c(Cl)cc(-n2ncc(=O)[nH]c2=O)cc1Cl (stereo not shown) [Diclazuril] | 28 | 44 | – | – |
| O=c1[nH]cnc2c1ncn2[C@H]1CC[C@@H](CO)O1 [Didanosine] | 22 | 7 | – | – |
| C[C@H]1O[C@@H](O[C@H]2[C@@H](O)C[C@H](O[C@H]3[C@@H](O)C[C@H](O[C@H]4CC[C@@]5(C)[C@H](CC[C@@H]6[C@@H]5CC[C@]5(C)[C@@H](C7=CC(=O)OC7)CC[C@]65O)C4)O[C@@H]3C)O[C@@H]2C)C[C@H](O)[C@@H]1O [Digitoxin] | 0 | 3 | – | – |

| SMILES | inhibition at 110 µM [1] [%] | inhibition at 110 µM [2] [%] | inhibition at 110 µM [3] [%] | inhibition at 110 µM [4] [%] |
| --- | --- | --- | --- | --- |
| COc1cc(CNC(=O)CCCCCCC(C)C)ccc1O [Dihydrocapsaicin] | 0 | 7 | – | – |
| COc1ccc2c(c1OC)CN(C)c1c-2ccc2cc3c(cc12)OCO3 [Dihydrochelerythrine] | 0 | 7 | – | – |
| O=C1c2c(O)cc(O)cc2O[C@H](c2ccc(O)cc2)[C@H]1O [Dihydrokaempferol] | 2 | 0 | – | – |
| O=C1c2c(O)cc(O)cc2O[C@H](c2cc(O)c(O)c(O)c2)[C@H]1O [Dihydromyricetin] | 33 | 16 | – | – |
| CN1Cc2c(ccc3c2OCO3)-c2ccc3cc4c(cc3c21)OCO4 [Dihydrosanguinarine] | 0 | 0 | – | – |
| Oc1c(I)cc(I)c2cccnc12 [Diiodohydroxyquinoline] | 38 | 40 | – | – |
| Cc1ncc([N+](=O)[O-])n1C [Dimetridazole] | 0 | 14 | – | – |
| Cc1c(C(N)=O)cc([N+](=O)[O-])cc1[N+](=O)[O-] [Dinitolmide] | 16 | 14 | – | – |
| CN/C(=N/CC1CCOC1)N[N+](=O)[O-] (stereo not shown) [Dinotefuran] | – | – | 7 | 0 |
| COc1ccc(-c2cc(=O)c3c(O)cc(O)cc3o2)cc1O [Diosmetin] | – | – | 13 | 0 |
| CC[C@H]1OC(=O)[C@H](C)[C@@H](O[C@H]2C[C@@](C)(OC)[C@@H](O)[C@H](C)O2)[C@H](C)[C@@H](O[C@@H]2O[C@H](C)C[C@H](N(C)C)[C@H]2O)[C@](C)(O)C[C@@H](C)[C@@H]2N[C@@H](COCCOC)O[C@H]([C@H]2C)[C@]1(C)O [Dirithromycin] | 3 | 0 | – | – |
| CC(=O)O[C@@]12CO[C@@H]1C[C@H](O)[C@@]1(C)C(=O)[C@H](O)C3=C(C)[C@@H](OC(=O)[C@H](O)[C@@H](NC(=O)OC(C)(C)C)c4ccccc4)C[C@@](O)([C@@H](OC(=O)c4ccccc4)[C@H]21)C3(C)C [Docetaxel] | 1 | 15 | – | – |
| C[C@@H]1CCO[C@H]2Cn3cc(C(=O)NCc4ccc(F)cc4F)c(=O)c(O)c3C(=O)N12 [Dolutegravir] | 25 | 3 | – | – |
| C=C1C[C@@]23CC[C@H]4[C@@](C)(CCC[C@@]4(C)C(=O)O[C@@H]4O[C@H](CO)[C@@H](O)[C@H](O)[C@H]4O)[C@@H]2CC[C@]1(O[C@@H]1O[C@H](CO)[C@@H](O)[C@H](O)[C@H]1O[C@@H]1O[C@@H](C)[C@H](O)[C@@H](O)[C@H]1O)C3 [Dulcoside A] | 0 | 11 | – | – |
| N[C@@H]1CON=C1O [D‐Cycloserine] | 12 | 13 | – | – |
| O=c1c2ccccc2[se]n1-c1ccccc1 [Ebselen] | 13 | 12 | – | – |
| C=C(CC[C@@H](C(=O)O)[C@H]1CC[C@@]2(C)C3=C(CC[C@]12C)[C@@]1(C)CC[C@H](O)C(C)(C)[C@@H]1CC3)C(C)C [Eburicoic acid] | 27 | 56 | – | – |
| COc1cc(O)ccc1/C=C/C(=O)c1ccc(O)cc1 [Echinatin] | 17 | 10 | – | – |
| O=C1Nc2ccc(Cl)cc2[C@@](C#CC2CC2)(C(F)(F)F)O1 [Efavirenz] | 29 | 29 | – | – |
| CC/C=C\C/C=C\C/C=C\C/C=C\C/C=C\CCCC(=O)O [Eicosapentaenoic Acid] | 0 | 4 | – | – |
| COc1cc2c(cc1Cc1cccc(Cl)c1F)c(=O)c(C(=O)O)cn2[C@H](CO)C(C)C [Elvitegravir] | 23 | 48 | – | – |
| Nc1nc(=O)n([C@@H]2CS[C@H](CO)O2)cc1F [Emtricitabine] | 26 | 32 | – | – |
| CC(=O)O[C@@H]1C[C@]23C4=CC[C@@]5(C)[C@H](C(=O)O)[C@@](C)([C@H](C)C(C)C)CC[C@]5(C)[C@H]4CC[C@H]2[C@@](C)(COC3O)[C@H]1O[C@@H]1O[C@H](CO)[C@@H](O)[C@H](O)[C@H]1O (stereo partly shown) [Enfumafungin] | 0 | 60 | – | – |
| C=C(C)[C@@H]1CC[C@]2(C(=O)O)CC[C@]3(C)[C@H](CC[C@@H]4[C@@]5(C)CC[C@@H](O)C(C)(C)[C@@H]5CC[C@]43C)[C@@H]12 [Epibetulinic acid] | 14 | 17 | – | – |
| CC(=O)O[C@@H]1C[C@H]2C(C)(C)C(=O)C=C[C@]2(C)[C@H]2CC[C@@]3(C)[C@H](c4ccoc4)C(=O)[C@H]4O[C@]43[C@@]21C [Epoxyazadiradione] | 19 | 47 | – | – |

Reference: publication PMC11855827, “High-Throughput Screening of Five Compound Libraries for Anthelmintic Activity and Toxicity Leads to the Discovery of Two Flavonoid Compounds” (International Journal of Molecular Sciences, 2025)
